This note sets out measurements from ChEMBL document CHEMBL1131840, “Structure-based design and synthesis of a novel class of Src SH2 inhibitors” (Bioorg Med Chem Lett, 1999).

The target of assay [1] is T1, Proto-oncogene tyrosine-protein kinase Src (Homo sapiens, UniProt P12931). As to the kind of experiment: Inhibition of binding to Src SH2 domain.
The target in assay [2] is T1, Proto-oncogene tyrosine-protein kinase Src. As to the kind of experiment: Binding affinity for Src SH2 domain.

pIC50, pKd: −log10 of the molar value.

T1 sequence (P12931 2-536 limits assumed): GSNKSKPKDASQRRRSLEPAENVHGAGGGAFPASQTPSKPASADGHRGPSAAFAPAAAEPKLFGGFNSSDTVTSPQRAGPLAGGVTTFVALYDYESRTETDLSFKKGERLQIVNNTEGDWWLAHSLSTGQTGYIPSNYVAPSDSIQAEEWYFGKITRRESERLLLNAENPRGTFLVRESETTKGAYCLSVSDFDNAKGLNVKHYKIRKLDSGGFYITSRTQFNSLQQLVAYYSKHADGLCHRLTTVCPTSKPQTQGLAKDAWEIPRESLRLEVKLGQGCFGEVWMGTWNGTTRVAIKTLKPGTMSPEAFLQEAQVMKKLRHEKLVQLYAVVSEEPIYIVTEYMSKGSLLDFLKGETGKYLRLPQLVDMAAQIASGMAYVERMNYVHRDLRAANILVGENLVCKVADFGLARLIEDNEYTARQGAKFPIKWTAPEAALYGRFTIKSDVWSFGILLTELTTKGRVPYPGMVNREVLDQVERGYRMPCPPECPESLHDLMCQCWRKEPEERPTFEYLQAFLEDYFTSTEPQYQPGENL

In the case of `CC(=O)N[C@@H](Cc1ccc(OP(=O)(O)O)cc1)C(=O)NCc1cccc(CC2CCCCC2)c1`, in assay [1], the pIC50 was 3.11.
Compound `CC[C@H](C)[C@H](NC(=O)[C@H](CCC(=O)O)NC(=O)[C@H](CCC(=O)O)NC(=O)[C@@H](N)Cc1ccc(OP(=O)(O)O)cc1)C(=O)O` had a negative logarithm of the Kd (pKd) in assay [2] of 7.00.
For the compound `CC[C@H](NC(=O)[C@H](Cc1ccc(OP(=O)(O)O)cc1)NC(C)=O)c1cccc(CC2CCCCC2)c1`, the negative logarithm of the IC50 (pIC50) in assay [1] was 3.51.

For orientation: pIC50 means the negative decadic logarithm of the IC50, by convention in mol/L. Lower therefore signals a large IC50. The pKd is the Kd on a negative log10 scale, so that one unit is a factor of ten. Low readings indicate a large Kd, high ones a small Kd.
